Data as given in patent US11214803B2, “Modulators of YAP1 expression” (Ionis Pharmaceuticals, Inc., priority 2019, dated 2022).
Strand notation (5' to 3'): a small letter for the sugar, then the base; units joined by * are phosphorothioate-linked, units joined directly phosphodiester-linked; [ ] holds rarer units or linkages, { } end groups; capitals alone tell only the bases. k = constrained ethyl (cEt); [5mC] = 5-methylcytosine; d = 2'-deoxy (DNA)

Test system: Yap1 mRNA
Assay: Dose-dependent inhibition of human Yap1 in A-431 cells (Example 8, 10,000 cells per well, RTS4814)
Type: cell-based
Settings: free uptake, approximately 48 hours, RTS4814; for Yap1 mRNA, % UTC: A-431 cells, 10,000 cells per well; for IC50: A-431 cells, linear regression on log/linear plot
In short: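 A-431 cells (10,000/well) dosed with modified oligonucleotides by free uptake; Yap1 mRNA measured ~48 h later with primer-probe set RTS4814, normalized to total RNA (RIBOGREEN). Values are % of untreated control; IC50 from linear regression on log/linear plot.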

For “1075810 (kG*kT*kA*dG*d[5mC]*dA*dA*dT*dA*dG*dA*dG*dT*kA*kA*k[5mC]; antisense) [compound 1075810]”, the “Yap1 mRNA, % UTC” value (31.3 nM) was 67 % UTC, the “Yap1 mRNA, % UTC” value (125.0 nM) was 28 % UTC and the “Yap1 mRNA, % UTC” value (500.0 nM) was 12 % UTC. For the same substance, the “Yap1 mRNA, % UTC” value (2000.00 nM) was 7 % UTC and the IC50 was 100 nM.

With “1075813 (kA*k[5mC]*kT*dA*dA*dT*dA*dT*dG*d[5mC]*dA*dA*d[5mC]*kT*k[5mC]*kT; antisense) [compound 1075813]” the “Yap1 mRNA, % UTC” value (31.3 nM) was 57 % UTC, the “Yap1 mRNA, % UTC” value (125.0 nM) was 31 % UTC and the “Yap1 mRNA, % UTC” value (500.0 nM) was 11 % UTC. For the same substance, the “Yap1 mRNA, % UTC” value (2000.00 nM) was 5 % UTC and the IC50 was 40 nM.

With “1075816 (kT*kA*kG*dT*dA*dT*dA*dA*dA*dG*d[5mC]*dA*dG*kG*kG*k[5mC]; antisense) [compound 1075816]” the “Yap1 mRNA, % UTC” value (31.3 nM) was 66 % UTC, the “Yap1 mRNA, % UTC” value (125.0 nM) was 29 % UTC and the “Yap1 mRNA, % UTC” value (500.0 nM) was 12 % UTC. For the same substance, the “Yap1 mRNA, % UTC” value (2000.00 nM) was 8 % UTC and the IC50 was 100 nM.

For “1075819 (kG*kT*kA*dT*dA*dT*d[5mC]*d[5mC]*dG*dT*dT*d[5mC]*dT*k[5mC]*kA*kT; antisense) [compound 1075819]”, the “Yap1 mRNA, % UTC” value (31.3 nM) was 48 % UTC, the “Yap1 mRNA, % UTC” value (125.0 nM) was 18 % UTC and the “Yap1 mRNA, % UTC” value (500.0 nM) was 7 % UTC. The “Yap1 mRNA, % UTC” value (2000.00 nM) was 5 % UTC and the IC50 was less than 20 nM.

With “1075842 (kG*kT*kA*dT*dT*dT*dA*dG*dG*dT*dA*d[5mC]*dT*k[5mC]*kA*kG; antisense) [compound 1075842]” the “Yap1 mRNA, % UTC” value (31.3 nM) was 27 % UTC, the “Yap1 mRNA, % UTC” value (125.0 nM) was 7 % UTC and the “Yap1 mRNA, % UTC” value (500.0 nM) was 3 % UTC. The “Yap1 mRNA, % UTC” value (2000.00 nM) was 3 % UTC and the IC50 was less than 20 nM.

“1075876 (antisense kG*kT*kA*dT*dT*dT*dA*dT*dG*dA*dT*dG*dA*kT*kT*k[5mC]) [compound 1075876]” was tested, and the “Yap1 mRNA, % UTC” value (31.3 nM) was 47 % UTC, the “Yap1 mRNA, % UTC” value (125.0 nM) was 20 % UTC and the “Yap1 mRNA, % UTC” value (500.0 nM) was 7 % UTC. The “Yap1 mRNA, % UTC” value (2000.00 nM) was 5 % UTC and the IC50 was less than 20 nM.

With “1075939 (antisense k[5mC]*kT*kT*dG*dA*dA*dT*dA*dT*dA*dT*dG*dG*kG*kT*kT) [compound 1075939]” the “Yap1 mRNA, % UTC” value (31.3 nM) was 46 % UTC, the “Yap1 mRNA, % UTC” value (125.0 nM) was 19 % UTC and the “Yap1 mRNA, % UTC” value (500.0 nM) was 10 % UTC. The “Yap1 mRNA, % UTC” value (2000.00 nM) was 8 % UTC and the IC50 was less than 20 nM.

For “1075968 (kT*kA*kT*dT*dT*dA*dA*dG*d[5mC]*d[5mC]*dA*dA*dA*k[5mC]*k[5mC]*kG; antisense) [compound 1075968]”, the “Yap1 mRNA, % UTC” value (31.3 nM) was 74 % UTC, the “Yap1 mRNA, % UTC” value (125.0 nM) was 37 % UTC and the “Yap1 mRNA, % UTC” value (500.0 nM) was 11 % UTC. For the same substance, the “Yap1 mRNA, % UTC” value (2000.00 nM) was 5 % UTC and the IC50 was 100 nM.

With “1076000 (k[5mC]*k[5mC]*kT*dA*dA*dT*dA*dT*dG*dA*d[5mC]*dT*d[5mC]*k[5mC]*kT*kT; antisense) [compound 1076000]” the “Yap1 mRNA, % UTC” value (31.3 nM) was 71 % UTC, the “Yap1 mRNA, % UTC” value (125.0 nM) was 31 % UTC and the “Yap1 mRNA, % UTC” value (500.0 nM) was 10 % UTC. For the same substance, the “Yap1 mRNA, % UTC” value (2000.00 nM) was 5 % UTC and the IC50 was 100 nM.

With “1076003 (kA*kA*kT*dT*dT*dA*dA*dT*dG*dG*d[5mC]*dT*dT*kG*k[5mC]*kA; antisense) [compound 1076003]” the “Yap1 mRNA, % UTC” value (31.3 nM) was 60 % UTC, the “Yap1 mRNA, % UTC” value (125.0 nM) was 28 % UTC and the “Yap1 mRNA, % UTC” value (500.0 nM) was 17 % UTC. For the same substance, the “Yap1 mRNA, % UTC” value (2000.00 nM) was 11 % UTC and the IC50 was 40 nM.

For “1076004 (kT*kA*kA*dT*dT*dT*dA*dA*dT*dG*dG*d[5mC]*dT*kT*kG*k[5mC]; antisense) [compound 1076004]”, the “Yap1 mRNA, % UTC” value (31.3 nM) was 27 % UTC, the “Yap1 mRNA, % UTC” value (125.0 nM) was 7 % UTC and the “Yap1 mRNA, % UTC” value (500.0 nM) was 3 % UTC. The “Yap1 mRNA, % UTC” value (2000.00 nM) was 2 % UTC and the IC50 was less than 20 nM.

For “1076064 (kT*kA*kT*dG*dA*dA*d[5mC]*dA*dA*dT*dG*dT*dA*k[5mC]*kT*k[5mC]; antisense) [compound 1076064]”, the “Yap1 mRNA, % UTC” value (31.3 nM) was 68 % UTC, the “Yap1 mRNA, % UTC” value (125.0 nM) was 26 % UTC and the “Yap1 mRNA, % UTC” value (500.0 nM) was 10 % UTC. The “Yap1 mRNA, % UTC” value (2000.00 nM) was 5 % UTC and the IC50 was 100 nM.

“1076067 (kG*k[5mC]*kA*dT*dA*dT*dA*dA*dG*dA*dT*dG*dT*kT*kT*kG; antisense) [compound 1076067]” was tested, and the “Yap1 mRNA, % UTC” value (31.3 nM) was 45 % UTC, the “Yap1 mRNA, % UTC” value (125.0 nM) was 13 % UTC and the “Yap1 mRNA, % UTC” value (500.0 nM) was 5 % UTC. For the same substance, the “Yap1 mRNA, % UTC” value (2000.00 nM) was 4 % UTC and the IC50 was less than 20 nM.

With “1076070 (kA*kT*kT*dA*dG*dT*dA*dA*dT*dG*d[5mC]*dA*d[5mC]*kA*kG*kG; antisense) [compound 1076070]” the “Yap1 mRNA, % UTC” value (31.3 nM) was 55 % UTC, the “Yap1 mRNA, % UTC” value (125.0 nM) was 17 % UTC and the “Yap1 mRNA, % UTC” value (500.0 nM) was 8 % UTC. The “Yap1 mRNA, % UTC” value (2000.00 nM) was 6 % UTC and the IC50 was less than 20 nM.

With “1076256 (kT*kT*kA*dT*dT*dT*dA*dG*dG*d[5mC]*d[5mC]*d[5mC]*d[5mC]*kA*kT*kA; antisense) [compound 1076256]” the “Yap1 mRNA, % UTC” value (31.3 nM) was 68 % UTC, the “Yap1 mRNA, % UTC” value (125.0 nM) was 33 % UTC and the “Yap1 mRNA, % UTC” value (500.0 nM) was 11 % UTC. The “Yap1 mRNA, % UTC” value (2000.00 nM) was 6 % UTC and the IC50 was 100 nM.

For “1076260 (k[5mC]*kT*kT*dA*dA*dT*dT*dT*dA*dA*d[5mC]*dT*d[5mC]*k[5mC]*kT*kG; antisense) [compound 1076260]”, the “Yap1 mRNA, % UTC” value (31.3 nM) was 61 % UTC, the “Yap1 mRNA, % UTC” value (125.0 nM) was 30 % UTC and the “Yap1 mRNA, % UTC” value (500.0 nM) was 12 % UTC. The “Yap1 mRNA, % UTC” value (2000.00 nM) was 5 % UTC and the IC50 was 50 nM.

With “1076288 (k[5mC]*kT*kT*dA*dT*dT*dT*dA*dG*d[5mC]*dA*dT*dA*kG*kT*kG; antisense) [compound 1076288]” the “Yap1 mRNA, % UTC” value (31.3 nM) was 31 % UTC, the “Yap1 mRNA, % UTC” value (125.0 nM) was 7 % UTC and the “Yap1 mRNA, % UTC” value (500.0 nM) was 3 % UTC. For the same substance, the “Yap1 mRNA, % UTC” value (2000.00 nM) was 4 % UTC and the IC50 was less than 20 nM.

For “1076291 (kG*kA*kT*dT*dA*dA*dT*dG*dG*dT*dG*dG*d[5mC]*kA*kT*kT; antisense) [compound 1076291]”, the “Yap1 mRNA, % UTC” value (31.3 nM) was 75 % UTC, the “Yap1 mRNA, % UTC” value (125.0 nM) was 26 % UTC and the “Yap1 mRNA, % UTC” value (500.0 nM) was 8 % UTC. For the same substance, the “Yap1 mRNA, % UTC” value (2000.00 nM) was 5 % UTC and the IC50 was 100 nM.

With “1076293 (kG*k[5mC]*kT*dT*dA*dT*dT*dA*dT*dT*dG*dA*dG*kT*kT*kA; antisense) [compound 1076293]” the “Yap1 mRNA, % UTC” value (31.3 nM) was 49 % UTC, the “Yap1 mRNA, % UTC” value (125.0 nM) was 18 % UTC and the “Yap1 mRNA, % UTC” value (500.0 nM) was 6 % UTC. The “Yap1 mRNA, % UTC” value (2000.00 nM) was 5 % UTC and the IC50 was less than 20 nM.
